Test results reported in ChEMBL document CHEMBL1201861, “Genomics of Drug Sensitity in Cancer screening data, Wellcome Trust Sanger Institute”.

Assays:
COR-L279 = experiment: SANGER: Inhibition of human COR-L279 cell growth in a cell viability assay.; type: functional, cell-based; settings: Homo sapiens, COR-L279
Calu-3 = experiment: cells; type: functional, cell-based; settings: Homo sapiens;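 also: growth inhibition of human Calu-3 cells, determined with a cell viability assay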
Description: SANGER: Inhibition of human Calu-3 cell growth in a cell viability assay.

Daudi = experiment: cells; type: functional, cell-based, Homo sapiens; settings: Homo sapiens, Daudi;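 also: growth inhibition of Daudi cells, read out by a viability assay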
Description: SANGER: Inhibition of human Daudi cell growth in a cell viability assay.

EFO-27 = experiment: cells; type: functional, cell-based; settings: Homo sapiens;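 also: growth inhibition of EFO-27 cells, read out with a cell viability assay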
Description: SANGER: Inhibition of human EFO-27 cell growth in a cell viability assay.

FaDu = experiment: cells; type: functional, cell-based; settings: Homo sapiens;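 also: cell viability readout of growth inhibition in FaDu cells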
Description: SANGER: Inhibition of human FADU cell growth in a cell viability assay.

GAMG = experiment: cells; type: functional, cell-based; settings: Homo sapiens;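 also: cell growth inhibition measured by a viability assay in the GAMG human cell line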
Description: SANGER: Inhibition of human GAMG cell growth in a cell viability assay.

HCC1395 = experiment: cells; type: functional, cell-based; settings: Homo sapiens;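 also: growth inhibition of HCC1395 cells, read out by a cell viability assay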
Description: SANGER: Inhibition of human HCC1395 cell growth in a cell viability assay.

HCC1954 = experiment: cells; type: functional, cell-based; settings: Homo sapiens;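 also: growth inhibition of human HCC1954 cells, read out with a cell viability assay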
Description: SANGER: Inhibition of human HCC1954 cell growth in a cell viability assay.

HCT-15 = experiment: cells; type: functional, cell-based; settings: Homo sapiens;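 also: cell viability readout, IC50 reflecting suppression of HCT-15 cell growth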
Description: SANGER: Inhibition of human HCT-15 cell growth in a cell viability assay.

HGC-27 = experiment: cells; type: functional, cell-based; settings: Homo sapiens;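 also: growth inhibition of human HGC-27 cells, read out in a cell viability assay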
Description: SANGER: Inhibition of human HGC-27 cell growth in a cell viability assay.

HLE = experiment: cells; type: functional, cell-based; settings: Homo sapiens;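 also: growth inhibition of human HLE cells, read out by a cell viability assay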
Description: SANGER: Inhibition of human HLE cell growth in a cell viability assay.

HN = experiment: cells; type: functional, cell-based; settings: Homo sapiens
Description: SANGER: Inhibition of human HN cell growth in a cell viability assay.

HTC-C3 = experiment: cells; type: functional, cell-based; settings: Homo sapiens;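 also: inhibition of cell growth, read out with a cell viability assay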
Description: SANGER: Inhibition of human HTC-C3 cell growth in a cell viability assay.

HuCCT-1 = experiment: cells; type: functional, cell-based, HuCCT1; settings: Homo sapiens;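 also: growth inhibition of HuCCT-1 cells, read out by a cell viability assay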
Description: SANGER: Inhibition of human HuCCT1 cell growth in a cell viability assay.

HuP-T3 = experiment: cells; type: functional, cell-based; settings: Homo sapiens;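 also: HuP-T3 cell growth inhibition, read out with a cell viability assay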
Description: SANGER: Inhibition of human HuP-T3 cell growth in a cell viability assay.

IM-9 = experiment: SANGER: Inhibition of human IM-9 cell growth in a cell viability assay.; type: functional, cell-based; settings: Homo sapiens, IM-9
KYSE-270 = experiment: cells; type: functional, cell-based; settings: Homo sapiens;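 also: cell growth inhibition measured with a viability assay in the human KYSE-270 line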
Description: SANGER: Inhibition of human KYSE-270 cell growth in a cell viability assay.

LCLC-103H cell line = experiment: cells; type: functional, cell-based; settings: Homo sapiens
Description: SANGER: Inhibition of human LCLC-103H cell growth in a cell viability assay.

MC-IXC = experiment: cells; type: functional, cell-based; settings: Homo sapiens;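 also: growth inhibition of MC-IXC cells, read out with a cell viability assay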
Description: SANGER: Inhibition of human MC-IXC cell growth in a cell viability assay.

MDA-MB-134-VI = experiment: cells; type: functional, cell-based, Homo sapiens; settings: Homo sapiens, MDA-MB-134-VI
Description: SANGER: Inhibition of human MDA-MB-134-VI cell growth in a cell viability assay.

MDA-MB-157 = experiment: cells; type: functional, cell-based; settings: Homo sapiens
Description: SANGER: Inhibition of human MDA-MB-157 cell growth in a cell viability assay.

MEL-HO = experiment: cells; type: functional, cell-based; settings: Homo sapiens
Description: SANGER: Inhibition of human MEL-HO cell growth in a cell viability assay.

MKN-1 = experiment: cells; type: functional, cell-based; settings: Homo sapiens;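 also: growth inhibition of human MKN1 cells, read out by a cell viability measurement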
Description: SANGER: Inhibition of human MKN1 cell growth in a cell viability assay.

MKN-45 = experiment: cells; type: functional, cell-based; settings: Homo sapiens;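 also: growth inhibition of human MKN-45 cells, measured with a cell viability assay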
Description: SANGER: Inhibition of human MKN45 cell growth in a cell viability assay.

NCI-H1437 = experiment: cells; type: functional, cell-based; settings: Homo sapiens;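 also: growth inhibition of human NCI-H1437 cells, read out by a cell viability assay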
Description: SANGER: Inhibition of human NCI-H1437 cell growth in a cell viability assay.

NCI-H1703 = experiment: cells; type: functional, cell-based; settings: Homo sapiens;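 also: growth inhibition of NCI-H1703 cells, read out via a cell viability assay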
Description: SANGER: Inhibition of human NCI-H1703 cell growth in a cell viability assay.

NCI-H1882 = experiment: cells; type: functional, cell-based, Homo sapiens; settings: Homo sapiens, NCI-H1882;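 also: growth inhibition of the cell line, determined with a viability assay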
Description: SANGER: Inhibition of human NCI-H1882 cell growth in a cell viability assay.

NCI-H2141 = experiment: cells; type: functional, cell-based, Homo sapiens; settings: Homo sapiens, NCI-H2141;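 also: growth inhibition of human NCI-H2141 cells, read out with a cell viability assay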
Description: SANGER: Inhibition of human NCI-H2141 cell growth in a cell viability assay.

NCI-H2405 = experiment: cells; type: functional, cell-based; settings: Homo sapiens;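 also: growth inhibition of the human cell line, read out with a cell viability assay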
Description: SANGER: Inhibition of human NCI-H2405 cell growth in a cell viability assay.

NCI-H322M = experiment: cells; type: functional, cell-based, Homo sapiens; settings: Homo sapiens, NCI-H322M;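 also: cell viability assay measuring inhibition of growth of human NCI-H322M cells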
Description: SANGER: Inhibition of human NCI-H322M cell growth in a cell viability assay.

NCI-H510A = experiment: cells; type: functional, cell-based, Homo sapiens; settings: Homo sapiens, NCI-H510A;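 also: growth inhibition of NCI-H510A cells, read out with a cell viability assay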
Description: SANGER: Inhibition of human NCI-H510A cell growth in a cell viability assay.

NCI-H522 = experiment: cells; type: functional, cell-based; settings: Homo sapiens;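 also: cell viability assay measuring growth inhibition of human NCI-H522 cells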
Description: SANGER: Inhibition of human NCI-H522 cell growth in a cell viability assay.

NCI-H524 = experiment: cells; type: functional, cell-based, Homo sapiens; settings: Homo sapiens, NCI-H524;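 also: growth inhibition of human NCI-H524 cells, read out through a cell viability assay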
Description: SANGER: Inhibition of human NCI-H524 cell growth in a cell viability assay.

NCI-H630 = experiment: cells; type: functional, cell-based; settings: Homo sapiens;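 also: growth inhibition of NCI-H630 cells, read out with a cell viability assay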
Description: SANGER: Inhibition of human NCI-H630 cell growth in a cell viability assay.

NCI-H810 = experiment: cells; type: functional, cell-based; settings: Homo sapiens;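 also: IC50 reflects inhibition of cancer cell line growth, read out with a cell viability assay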
Description: SANGER: Inhibition of human NCI-H810 cell growth in a cell viability assay.

SNU-16 = experiment: cells; type: functional, cell-based, Homo sapiens; settings: Homo sapiens, SNU-16;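 also: growth inhibition of human SNU-16 cells, determined with a cell viability readout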
Description: SANGER: Inhibition of human NCI-SNU-16 cell growth in a cell viability assay.

NY = experiment: cells; type: functional, cell-based; settings: Homo sapiens
Description: SANGER: Inhibition of human NY cell growth in a cell viability assay.

RD = experiment: cells; type: functional, cell-based; settings: Homo sapiens
Description: SANGER: Inhibition of human RD cell growth in a cell viability assay.

RMG-I = experiment: cells; type: functional, cell-based; settings: Homo sapiens;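 also: growth inhibition of human RMG-I cells, read out with a cell viability assay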
Description: SANGER: Inhibition of human RMG-I cell growth in a cell viability assay.

Raji = experiment: cells; type: functional, cell-based, Homo sapiens; settings: Homo sapiens, Raji;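 also: cell viability assay measuring inhibition of Raji cell growth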
Description: SANGER: Inhibition of human Raji cell growth in a cell viability assay.

SCLC-21H = experiment: cells; type: functional, cell-based, Homo sapiens; settings: Homo sapiens, SCLC-21H;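 also: growth inhibition of cultured human SCLC-21H cells, read out with a cell viability assay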
Description: SANGER: Inhibition of human SCLC-21H cell growth in a cell viability assay.

SIMA = experiment: cells; type: functional, cell-based, Homo sapiens; settings: Homo sapiens, SIMA;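 also: growth inhibition of SIMA cells, measured with a cell viability readout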
Description: SANGER: Inhibition of human SIMA cell growth in a cell viability assay.

SNU-449 = experiment: cells; type: functional, cell-based; settings: Homo sapiens
Description: SANGER: Inhibition of human SNU-449 cell growth in a cell viability assay.

SW1463 = experiment: cells; type: functional, cell-based; settings: Homo sapiens;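 also: growth inhibition of SW1463 cells, determined with a cell viability assay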
Description: SANGER: Inhibition of human SW1463 cell growth in a cell viability assay.

SW1710 = experiment: cells; type: functional, cell-based; settings: Homo sapiens;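 also: growth inhibition of SW1710 cells, determined with a cell viability assay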
Description: SANGER: Inhibition of human SW1710 cell growth in a cell viability assay.

SW1990 = experiment: cells; type: functional, cell-based; settings: Homo sapiens
Description: SANGER: Inhibition of human SW1990 cell growth in a cell viability assay.

SW626 = experiment: cells; type: functional, cell-based; settings: Homo sapiens;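 also: growth inhibition of SW626 cells, measured with a cell viability assay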
Description: SANGER: Inhibition of human SW626 cell growth in a cell viability assay.

SW780 = experiment: cells; type: functional, cell-based; settings: Homo sapiens;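 also: growth inhibition of the cells, read out with a cell viability assay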
Description: SANGER: Inhibition of human SW780 cell growth in a cell viability assay.

T-24 = experiment: cells; type: functional, cell-based; settings: Homo sapiens;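 also: growth inhibition of T-24 cells, read out with a cell viability assay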
Description: SANGER: Inhibition of human T-24 cell growth in a cell viability assay.

A204 = experiment: cells; type: functional, cell-based; settings: Homo sapiens;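 also: growth inhibition of human A204 cells, read out with a cell viability assay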
Description: SANGER: Inhibition of human A204 cell growth in a cell viability assay.

A-427 = experiment: cells; type: functional, cell-based; settings: Homo sapiens;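 also: growth inhibition of human A-427 cells, read out by a cell viability assay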
Description: SANGER: Inhibition of human A427 cell growth in a cell viability assay.

ARH-77 = experiment: cells; type: functional, cell-based, Homo sapiens; settings: Homo sapiens, ARH-77;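 also: growth inhibition of ARH-77 cells, read out by a cell viability assay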
Description: SANGER: Inhibition of human ARH-77 cell growth in a cell viability assay.

C3A = experiment: cells; type: functional, cell-based; settings: Homo sapiens;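 also: growth inhibition of C3A human cells, quantified with a cell viability readout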
Description: SANGER: Inhibition of human C3A cell growth in a cell viability assay.

CAL-148 = experiment: cells; type: functional, cell-based, Homo sapiens; settings: Homo sapiens, CAL-148
Description: SANGER: Inhibition of human CAL-148 cell growth in a cell viability assay.

CAL-39 = experiment: cells; type: functional, cell-based; settings: Homo sapiens;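 also: cell viability assay measuring growth inhibition of CAL-39 cells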
Description: SANGER: Inhibition of human CAL-39 cell growth in a cell viability assay.

UO-31 = experiment: cells; type: functional, cell-based; settings: Homo sapiens
Description: SANGER: Inhibition of human U031 cell growth in a cell viability assay.

U-251 = experiment: cells; type: functional, cell-based; settings: Homo sapiens;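 also: growth inhibition of human U-251 cells, read out through a cell viability assay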
Description: SANGER: Inhibition of human U251 cell growth in a cell viability assay.

CAMA-1 = experiment: cells; type: functional, cell-based; settings: Homo sapiens;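 also: growth inhibition of CAMA-1 cells, read out with a cell viability assay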
Description: SANGER: Inhibition of human CAMA-1 cell growth in a cell viability assay.

CAPAN-1 = experiment: cells; type: functional, cell-based; settings: Homo sapiens;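 also: growth suppression of CAPAN-1 cells, read out by a cell viability assay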
Description: SANGER: Inhibition of human CAPAN-1 cell growth in a cell viability assay.

CHP-126 = experiment: cells; type: functional, cell-based, Homo sapiens; settings: Homo sapiens, CHP-126
Description: SANGER: Inhibition of human CHP-126 cell growth in a cell viability assay.

Cc1ccc(C(=O)Nc2ccc(CN3CCN(C)CC3)c(C(F)(F)F)c2)cc1C#Cc1cnc2cccnn12 [PONATINIB]
IC50 (COR-L279): > 512 nM
IC50 (Calu-3): > 512 nM
IC50 (Daudi): 25.4 nM
IC50 (EFO-27): > 512 nM
IC50 (FaDu): > 512 nM
IC50 (GAMG): > 512 nM
IC50 (HCC1395): > 512 nM
IC50 (HCC1954): > 512 nM
IC50 (HCT-15): > 512 nM
IC50 (HGC-27): 294 nM
IC50 (HLE): 419 nM
IC50 (HN): > 512 nM
IC50 (HTC-C3): > 512 nM
IC50 (HuCCT-1): > 512 nM
IC50 (HuP-T3): > 512 nM
IC50 (IM-9): > 512 nM
IC50 (KYSE-270): > 512 nM
IC50 (LCLC-103H cell line): > 512 nM
IC50 (MC-IXC): > 512 nM
IC50 (MDA-MB-134-VI): > 512 nM
IC50 (MDA-MB-157): > 512 nM
IC50 (MEL-HO): > 512 nM
IC50 (MKN-1): > 512 nM
IC50 (MKN-45): > 512 nM
IC50 (NCI-H1437): > 512 nM
IC50 (NCI-H1703): 196 nM
IC50 (NCI-H1882): > 512 nM
IC50 (NCI-H2141): > 512 nM
IC50 (NCI-H2405): > 512 nM
IC50 (NCI-H322M): > 512 nM
IC50 (NCI-H510A): > 512 nM
IC50 (NCI-H522): 453 nM
IC50 (NCI-H524): > 512 nM
IC50 (NCI-H630): > 512 nM
IC50 (NCI-H810): > 512 nM
IC50 (SNU-16): > 512 nM
IC50 (NY): 193 nM
IC50 (RD): > 512 nM
IC50 (RMG-I): > 512 nM
IC50 (Raji): > 512 nM
IC50 (SCLC-21H): > 512 nM
IC50 (SIMA): > 512 nM
IC50 (SNU-449): 300 nM
IC50 (SW1463): > 512 nM
IC50 (SW1710): 365 nM
IC50 (SW1990): > 512 nM
IC50 (SW626): > 512 nM
IC50 (SW780): 423 nM
IC50 (T-24): > 512 nM
IC50 (A204): 12.2 nM
IC50 (A-427): 273 nM
IC50 (ARH-77): > 512 nM
IC50 (C3A): > 512 nM
IC50 (CAL-148): > 512 nM
IC50 (CAL-39): 465 nM
IC50 (UO-31): > 512 nM
IC50 (U-251): > 512 nM
IC50 (CAMA-1): > 512 nM
IC50 (CAPAN-1): > 512 nM
IC50 (CHP-126): > 512 nM
